Key:
[1] = biological target: T1, CgAKR-1 (Coptotermes gestroi, UniProt A0A140CVV2); assay: NADPH oxidation at […] nm, varied NADPH; format: biochemical; details: 5 mM 2-nitrobenzaldehyde; 50 mM sodium phosphate pH 7.0 (standard assay), 30 °C; Kd apparently from kinetics
T1 construct: full-length ORF of 334 residues, N-terminal 6xHis tag (pET-28a, NheI/BamHI), E. coli ArcticExpress (DE3); Ni and size exclusion purified
T1 sequence (A0A140CVV2 1-334): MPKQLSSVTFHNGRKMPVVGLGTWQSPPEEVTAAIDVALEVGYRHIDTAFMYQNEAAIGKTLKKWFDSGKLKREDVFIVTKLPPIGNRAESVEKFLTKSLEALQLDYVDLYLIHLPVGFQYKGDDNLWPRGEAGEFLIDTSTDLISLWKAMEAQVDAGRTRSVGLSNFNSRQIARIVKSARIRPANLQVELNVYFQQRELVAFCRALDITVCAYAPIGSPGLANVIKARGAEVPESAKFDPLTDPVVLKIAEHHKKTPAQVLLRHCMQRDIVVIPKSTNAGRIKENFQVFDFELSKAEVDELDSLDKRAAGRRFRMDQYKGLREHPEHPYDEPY

[2] = biological target: T1, CgAKR-1; assay: X-ray crystal structure; details: cofactor-binding site; complex described in text, ligand state not stated explicitly
[3] = substrate: O=Cc1ccccc1[N+](=O)[O-]; assay: purified protein; format: biochemical, Coptotermes gestroi; details: 0.2 mM NADPH, 50 mM sodium phosphate pH 7.0 (standard assay), 30 °C

NC(=O)C1=CN([C@@H]2O[C@H](COP(=O)(O)OP(=O)(O)OC[C@H]3O[C@@H](n4cnc5c(N)ncnc54)[C@H](OP(=O)(O)O)[C@@H]3O)[C@@H](O)[C@H]2O)C=CC1 [NADPH]
Kd [1]: 60 µM

NC(=O)c1ccc[n+]([C@@H]2O[C@H](COP(=O)(O)OP(=O)(O)OC[C@H]3O[C@@H](n4cnc5c(N)ncnc54)[C@H](OP(=O)(O)O)[C@@H]3O)[C@@H](O)[C@H]2O)c1 [NADP]
X-ray crystal structure [2]: the pocket was mainly delimited by the cofactor (NADP) and nine amino acids

B1: CgAKR-1 (Coptotermes gestroi) (protein)
chain: MPKQLSSVTFHNGRKMPVVGLGTWQSPPEEVTAAIDVALEVGYRHIDTAFMYQNEAAIGKTLKKWFDSGKLKREDVFIVTKLPPIGNRAESVEKFLTKSLEALQLDYVDLYLIHLPVGFQYKGDDNLWPRGEAGEFLIDTSTDLISLWKAMEAQVDAGRTRSVGLSNFNSRQIARIVKSARIRPANLQVELNVYFQQRELVAFCRALDITVCAYAPIGSPGLANVIKARGAEVPESAKFDPLTDPVVLKIAEHHKKTPAQVLLRHCMQRDIVVIPKSTNAGRIKENFQVFDFELSKAEVDELDSLDKRAAGRRFRMDQYKGLREHPEHPYDEPY
notes: full-length ORF of 334 residues, N-terminal 6xHis tag (pET-28a, NheI/BamHI), E. coli ArcticExpress (DE3); Ni and size exclusion purified
Km [3]: 150 µM
kcat [3]: 7.5 s⁻¹
